Laboratory results published in PubChem BioAssay (NCI).
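Cells were grown in 96-well plates and exposed to each compound for 48 hours at five concentrations; endpoints were interpolated linearly between bracketing concentrations, or set to the highest concentration if not reached. Definition used: TGI = concentration required for complete inhibition of growth.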

Columns and labels:
Experiment in all cases: inhibition of tumour cell growth, NCI panel, 48 h
MOLT-4 leukemia = system: MOLT-4 leukemia
HOP-92 NSCLC = system: HOP-92 NSCLC
SK-MEL-5 melanoma = system: SK-MEL-5 melanoma
COLO 205 colon = system: COLO 205 colon
T-47D breast = system: T-47D breast
MCF7 breast = system: MCF7 breast
SK-MEL-28 melanoma = system: SK-MEL-28 melanoma
OVCAR-3 ovarian = system: OVCAR-3 ovarian
IGROV1 ovarian = system: IGROV1 ovarian
K-562 leukemia = system: K-562 leukemia
MALME-3M melanoma = system: MALME-3M melanoma
NCI-H23 lung = system: NCI-H23 lung
SN12C renal = system: SN12C renal
HCT-116 colon = system: HCT-116 colon
A549 NSCLC = system: A549 NSCLC
ACHN renal = system: ACHN renal
786-0 renal = system: 786-0 renal
TK-10 renal = system: TK-10 renal
MDA-MB-435 = system: MDA-MB-435
KM12 colon = system: KM12 colon
PC-3 prostate = system: PC-3 prostate
HT29 colon = system: HT29 colon
OVCAR-8 ovarian = system: OVCAR-8 ovarian
HCT-15 colon = system: HCT-15 colon
SK-OV-3 ovarian = system: SK-OV-3 ovarian
RPMI-8226 leukemia = system: RPMI-8226 leukemia
HL-60(TB) leukemia = system: HL-60(TB) leukemia
UACC-257 melanoma = system: UACC-257 melanoma
U251 CNS = system: U251 CNS
UACC-62 melanoma = system: UACC-62 melanoma
OVCAR-4 ovarian = system: OVCAR-4 ovarian
CAKI-1 renal = system: CAKI-1 renal
NCI/ADR-RES ovarian = system: NCI/ADR-RES ovarian
A498 renal = system: A498 renal
SR leukemia = system: SR leukemia
BT-549 breast = system: BT-549 breast
SF-268 CNS = system: SF-268 CNS
DU-145 prostate = system: DU-145 prostate
HS 578T breast = system: HS 578T breast
HOP-62 NSCLC = system: HOP-62 NSCLC
MDA-MB-231 breast = system: MDA-MB-231 breast
EKVX NSCLC = system: EKVX NSCLC
NCI-H522 lung = system: NCI-H522 lung
SNB-75 CNS = system: SNB-75 CNS
SF-539 CNS = system: SF-539 CNS
M14 melanoma = system: M14 melanoma
HCC-2998 colon = system: HCC-2998 colon
CCRF-CEM leukemia = system: CCRF-CEM leukemia
SW-620 colon = system: SW-620 colon
MDA-N = system: MDA-N
SNB-19 CNS = system: SNB-19 CNS
UO-31 renal = system: UO-31 renal
RXF 393 renal = system: RXF 393 renal
SK-MEL-2 melanoma = system: SK-MEL-2 melanoma
LOX IMVI melanoma = system: LOX IMVI melanoma
NCI-H226 lung = system: NCI-H226 lung
SF-295 CNS = system: SF-295 CNS
NCI-H460 lung = system: NCI-H460 lung
OVCAR-5 ovarian = system: OVCAR-5 ovarian

How did the TGI (MOLT-4 leukemia) turn out when `COC(=O)[C@]1(C)CCCC2(C)C3=C(CCC21)CC1(CC3)SCCS1` (stereo not given in full) was run?
The TGI was > 10 µM.

And the TGI (HOP-92 NSCLC)?
The TGI was > 10 µM.

What about the TGI (SK-MEL-5 melanoma) of the same compound?
Its TGI is > 10 µM.

And the TGI (COLO 205 colon)?
Its TGI is > 10 µM.

And the TGI (T-47D breast)?
Its TGI is > 10 µM.

And the TGI (MCF7 breast)?
The TGI was > 10 µM.

What about the TGI (SK-MEL-28 melanoma) of the same compound?
The TGI was > 10 µM.

What about the TGI (OVCAR-3 ovarian) of the same compound?
Its TGI is > 10 µM.

And the TGI (IGROV1 ovarian)?
The TGI was > 10 µM.

And the TGI (K-562 leukemia)?
Its TGI is > 10 µM.

What about the TGI (MALME-3M melanoma) of the same compound?
The TGI was > 10 µM.

And the TGI (NCI-H23 lung)?
The TGI was > 10 µM.

And the TGI (SN12C renal)?
The TGI was > 10 µM.

What about the TGI (HCT-116 colon) of the same compound?
Its TGI is > 10 µM.

What about the TGI (A549 NSCLC) of the same compound?
Its TGI is > 10 µM.

And the TGI (ACHN renal)?
The TGI was > 10 µM.

What about the TGI (786-0 renal) of the same compound?
Its TGI is > 10 µM.

What about the TGI (TK-10 renal) of the same compound?
The TGI was > 10 µM.

And the TGI (MDA-MB-435)?
The TGI was > 10 µM.

And the TGI (KM12 colon)?
Its TGI is > 10 µM.

What about the TGI (PC-3 prostate) of the same compound?
The TGI was > 10 µM.

What about the TGI (HT29 colon) of the same compound?
Its TGI is > 10 µM.

What about the TGI (OVCAR-8 ovarian) of the same compound?
Its TGI is > 10 µM.

What about the TGI (HCT-15 colon) of the same compound?
Its TGI is > 10 µM.

What about the TGI (SK-OV-3 ovarian) of the same compound?
The TGI was > 10 µM.

What about the TGI (RPMI-8226 leukemia) of the same compound?
Its TGI is > 10 µM.

What about the TGI (HL-60(TB) leukemia) of the same compound?
The TGI was > 10 µM.

And the TGI (UACC-257 melanoma)?
Its TGI is > 10 µM.

What about the TGI (U251 CNS) of the same compound?
The TGI was > 10 µM.

And the TGI (UACC-62 melanoma)?
The TGI was > 10 µM.

What about the TGI (OVCAR-4 ovarian) of the same compound?
The TGI was > 10 µM.

And the TGI (CAKI-1 renal)?
Its TGI is > 10 µM.

And the TGI (NCI/ADR-RES ovarian)?
Its TGI is > 10 µM.

What about the TGI (A498 renal) of the same compound?
The TGI was > 10 µM.

What about the TGI (SR leukemia) of the same compound?
The TGI was > 10 µM.

And the TGI (BT-549 breast)?
The TGI was > 10 µM.

What about the TGI (SF-268 CNS) of the same compound?
The TGI was > 10 µM.

And the TGI (DU-145 prostate)?
The TGI was > 10 µM.

And the TGI (HS 578T breast)?
The TGI was > 10 µM.

And the TGI (HOP-62 NSCLC)?
Its TGI is > 10 µM.

And the TGI (MDA-MB-231 breast)?
Its TGI is > 10 µM.

And the TGI (EKVX NSCLC)?
Its TGI is > 10 µM.

What about the TGI (NCI-H522 lung) of the same compound?
Its TGI is > 10 µM.

And the TGI (SNB-75 CNS)?
Its TGI is > 10 µM.

And the TGI (SF-539 CNS)?
The TGI was > 10 µM.

And the TGI (M14 melanoma)?
Its TGI is > 10 µM.

What about the TGI (HCC-2998 colon) of the same compound?
Its TGI is > 10 µM.

What about the TGI (CCRF-CEM leukemia) of the same compound?
Its TGI is > 10 µM.

What about the TGI (SW-620 colon) of the same compound?
The TGI was > 10 µM.

And the TGI (MDA-N)?
Its TGI is > 10 µM.

What about the TGI (SNB-19 CNS) of the same compound?
Its TGI is > 10 µM.

With `Cc1cc(C)c(S(=O)(=O)N(CCCN)OCCCN)c(C)c1` as the compound, how does the TGI (MOLT-4 leukemia) read?
The TGI was > 100 µM.

And the TGI (HOP-92 NSCLC)?
Its TGI is > 100 µM.

And the TGI (SK-MEL-5 melanoma)?
The TGI was > 100 µM.

And the TGI (COLO 205 colon)?
The TGI was > 100 µM.

And the TGI (T-47D breast)?
Its TGI is > 100 µM.

And the TGI (MCF7 breast)?
Its TGI is > 100 µM.

And the TGI (SK-MEL-28 melanoma)?
Its TGI is > 100 µM.

And the TGI (OVCAR-3 ovarian)?
Its TGI is > 100 µM.

What about the TGI (IGROV1 ovarian) of the same compound?
Its TGI is > 100 µM.

What about the TGI (K-562 leukemia) of the same compound?
The TGI was > 100 µM.

What about the TGI (MALME-3M melanoma) of the same compound?
Its TGI is > 100 µM.

And the TGI (UO-31 renal)?
Its TGI is > 100 µM.

What about the TGI (NCI-H23 lung) of the same compound?
The TGI was > 100 µM.

What about the TGI (SN12C renal) of the same compound?
Its TGI is > 100 µM.

And the TGI (HCT-116 colon)?
The TGI was > 100 µM.

What about the TGI (A549 NSCLC) of the same compound?
Its TGI is > 100 µM.

What about the TGI (ACHN renal) of the same compound?
The TGI was > 100 µM.

And the TGI (TK-10 renal)?
Its TGI is > 100 µM.

What about the TGI (MDA-MB-435) of the same compound?
The TGI was > 100 µM.

And the TGI (RXF 393 renal)?
The TGI was > 100 µM.

What about the TGI (KM12 colon) of the same compound?
Its TGI is > 100 µM.

What about the TGI (PC-3 prostate) of the same compound?
The TGI was > 100 µM.

What about the TGI (HT29 colon) of the same compound?
The TGI was > 100 µM.

And the TGI (SK-MEL-2 melanoma)?
The TGI was > 100 µM.

And the TGI (LOX IMVI melanoma)?
Its TGI is > 100 µM.

And the TGI (OVCAR-8 ovarian)?
The TGI was > 100 µM.

And the TGI (SK-OV-3 ovarian)?
The TGI was > 100 µM.

What about the TGI (RPMI-8226 leukemia) of the same compound?
Its TGI is > 100 µM.

And the TGI (UACC-257 melanoma)?
The TGI was > 100 µM.

And the TGI (U251 CNS)?
Its TGI is > 100 µM.

What about the TGI (UACC-62 melanoma) of the same compound?
Its TGI is > 100 µM.

And the TGI (NCI-H226 lung)?
The TGI was > 100 µM.

And the TGI (OVCAR-4 ovarian)?
The TGI was > 100 µM.

What about the TGI (CAKI-1 renal) of the same compound?
The TGI was > 100 µM.

What about the TGI (NCI/ADR-RES ovarian) of the same compound?
The TGI was > 100 µM.

And the TGI (SR leukemia)?
The TGI was > 100 µM.

What about the TGI (BT-549 breast) of the same compound?
The TGI was > 100 µM.

What about the TGI (SF-268 CNS) of the same compound?
Its TGI is > 100 µM.

What about the TGI (SF-295 CNS) of the same compound?
The TGI was > 100 µM.

What about the TGI (DU-145 prostate) of the same compound?
Its TGI is > 100 µM.

And the TGI (HS 578T breast)?
The TGI was > 100 µM.

And the TGI (HOP-62 NSCLC)?
The TGI was > 100 µM.

What about the TGI (MDA-MB-231 breast) of the same compound?
The TGI was > 100 µM.

What about the TGI (EKVX NSCLC) of the same compound?
The TGI was > 100 µM.

What about the TGI (SNB-75 CNS) of the same compound?
Its TGI is > 100 µM.

And the TGI (SF-539 CNS)?
Its TGI is > 100 µM.

What about the TGI (NCI-H460 lung) of the same compound?
Its TGI is > 100 µM.

And the TGI (M14 melanoma)?
Its TGI is > 100 µM.

What about the TGI (HCC-2998 colon) of the same compound?
Its TGI is > 100 µM.

And the TGI (CCRF-CEM leukemia)?
Its TGI is > 100 µM.

And the TGI (SW-620 colon)?
The TGI was > 100 µM.

And the TGI (OVCAR-5 ovarian)?
Its TGI is > 100 µM.

What about the TGI (MDA-N) of the same compound?
The TGI was > 100 µM.

What about the TGI (SNB-19 CNS) of the same compound?
The TGI was > 100 µM.
